Data from US20240366607A1, “COMPOSITION FOR PREVENTION OR TREATMENT OF ATOPIC DERMATITIS COMPRISING AKT SIGNALING PATHWAY INHIBITOR AS ACTIVE INGREDIENT” (priority 2021, published 2024).

How the values were obtained:
[1] = system: normal skin tissue; assay: MTT assay, cell viability in normal skin tissue; type: cell-based; settings: for cell viability: normal skin tissue
Protocol: To determine the final concentration of the drug ipatasertib, normal skin tissue was seeded in a 96-well plate, and treated with ipatasertib at varying concentrations of 1 μM, 10 μM, 50 μM, 100 μM, and 200 μM. The safety and toxicity of the drug to the normal skin tissue were evaluated by measuring the absorbance at 540 nm.

[2] = system: human T cells in the skin of the avatar mouse; assay: Human T cell fractions in the skin of the avatar mouse; type: in vivo
Protocol: (§1) PBMCs were obtained from blood samples isolated from atopic dermatitis patients, and then CD3+ T cells, which are pathogenic cells, and CD3-depleted PBMCs, which are antigen-presenting cells, were separated therefrom. Human PBMC cells obtained by this method were injected into an immunodeficient NSG mouse by two different routes of administration. That is, avatar mice were prepared by injecting CD3+ T cells, which are pathogenic cells, through intravenous injection, and CD3-depleted PBMCs through intradermal injection. After the hair on the back of the prepared avatar mouse was shaved, dead skin cells were removed using 3M film once every three days, and 100 mg of house dust mite ointment was applied to the back of the mouse for three weeks. Then, from week 4, the mouse was treated with house dust mite ointment plus ipatasertib to evaluate the therapeutic effect of ipatasertib (FIG. 14A).

[3] = system: NC/Nga mice with induced atopic dermatitis; assay: HDM-induced atopic dermatitis in NC/Nga mice: skin lesions and SCORAD index; type: in vivo, mouse
Protocol: NC/Nga mice showing clinical and histological phenotypes similar to atopic dermatitis were used. To prepare atopic dermatitis animal models, atopic skin lesions were induced by treating mice with house dust mites (HDM), a representative trigger/aggravator of atopic dermatitis (FIG. 2).
(§2) Atopic skin lesions were induced in NC/Nga mice by treatment with HDM three times a week until 4 weeks after the start of the experiment, and then each mouse was treated with ipatasertib and/or 0.1% dexamethasone (200 μL) three times a week for another four weeks (FIG. 3). Control groups consisted of a non-HDM-treated group (3 animals), a HDM-treated group (3 animals), and a HDM-and 0.1% dexamethasone-treated group (3 animals, positive control group), and experimental groups were administered ipatasertib after HDM treatment. Then, in order to check changes in skin-specific T cells in each animal, single suspensions were prepared using the spleen, skin, and lymph nodes, and T-cells were stained using anti-CD3, anti-CD4, anti-CD8, and CD45 antibodies. Flow cytometry was performed on skin-specific T cells using anti-CD69 and anti-CD103 antibodies, thereby observing the changes in number and distribution of skin-specific T cells by the application of the drug.
To evaluate the effect of ipatasertib administration in NC/Nga mice with induced atopic dermatitis, atopic dermatitis was induced by applying house dust mite (HDM) ointment to the mouse's back three times a week for 4 weeks, and then ipatasertib drug was applied to the mouse's back three times a week for another 4 weeks. […] Each score was obtained by the Wilcoxon signed-rank test, and P<0.05 was considered statistically significant. Three mice per group were tested.

[4] = system: skin-specific T cells; assay: FACS of T cells using skin immune cells and skin lesions of atopic dermatitis patients; type: cell-based, human
Protocol: To verify the effect of the candidate drug on skin-specific T cells in human skin tissue, a single suspension was prepared using the skin from an atopic dermatitis patient. T cells were stained using anti-CD3, anti-CD4, anti-CD8 and anti-CD45 antibodies, and flow cytometry was performed on skin-specific T cells using anti-CD69 and anti-CD103 antibodies, thereby observing the changes in number and distribution of skin-specific T cells by the application of the drug.

[5] = system: T cells in the spleen; assay: FACS of T cell fractions in spleen of atopic dermatitis mouse model; type: in vivo
Protocol: as §2

[6] = system: skin tissue of NC/Nga mice; assay: H&E staining of skin tissue of HDM-treated NC/Nga mice (eosinophil count, epidermal thickness); type: in vivo, mouse
Protocol: Data are expressed as mean±standard deviation (SD). **P<0.01, *P<0.05.
as §2
Patients with allergic diseases often have a blood eosinophil count that increased by more than 5%, and based on this fact, eosinophils were counted by hematoxylin and eosin (H&E) staining. […] In addition, when atopic dermatitis occurs, the skin thickens due to an excessive inflammatory response.

[7] = system: T cells in skin-draining lymph nodes; assay: FACS of T cell fractions in skin-draining lymph nodes of atopic dermatitis mouse model; type: in vivo
Protocol: as §2

[8] = system: humanized avatar mouse model; assay: Therapeutic effect in humanized avatar mouse model with HDM-induced atopic dermatitis; type: in vivo; settings: applied to the back three times a week for one week after three weeks HDM
Protocol: as §1

[9] = system: DF-specific IgE; assay: Serum total DF-specific IgE by ELISA in atopic dermatitis mouse model; type: in vivo; settings: 100 μM
Protocol: as §2
(§3) Blood was collected from the mouse heart, and then serum total DF-specific IgE (ng/mL) (A450) was measured in a 96-well plate (Corning Inc., Corning, NY, USA) using the ELISA MAX™ Delux Set (BioLegend, San Diego, CA, USA) kit.
House dust mites are a common cause of allergy, and based on this fact, DF-specific IgE was measured.

[10] = system: skin-specific T cells in the skin; assay: FACS of skin-specific T cell fractions in skin of atopic dermatitis mouse model; type: in vivo
Protocol: as §2

[11] = system: serum total IgE; assay: Serum total IgE by ELISA in atopic dermatitis mouse model; type: in vivo
Protocol: as §2, §3
The changes in serum total IgE levels in atopic dermatitis mouse models by ipatasertib treatment were measured. […]

[12] = 100 μM, compared to 0.1% dexamethasone group

CC(C)NC[C@@H](C(=O)N1CCN(c2ncnc3c2[C@H](C)C[C@H]3O)CC1)c1ccc(Cl)cc1 [ipatasertib]
cell viability ([1]; 50 μM): ≥ 90%
cell viability ([1]; 100 μM): ≥ 90%
toxicity in normal skin tissue ([1]; up to 100 μM): no significant toxicity
proportion of human CD3 T cells ([2]; 100 μM, compared to control group): significantly decreased compared to that in the control group
proportions of human CD8 and CD4 cells ([2]; drug-treated group): significantly lower
recovery of skin lesions ([3]; 100 μM, applied to the back three times a week for 4 weeks): most notable recovery
scoring atopic dermatitis (SCORAD) index [3, 12]: lower SCORAD index than the 0.1% dexamethasone-administered group
therapeutic effect on atopic dermatitis skin lesions ([3]; applied to the back three times a week for 4 weeks after 4 weeks HDM): significant therapeutic effect was observed in a drug concentration-dependent manner
wounds, dryness, and shedding ([3]; compared to positive control 0.1% dexamethasone): significantly reduced compared to the positive control group administered 0.1% dexamethasone
scoring atopic dermatitis (SCORAD) index ([3]; ipatasertib-administered groups, three mice per group): significantly decreased
proportion of skin-specific T cells ([4]; 50 μM): significantly decreased
proportion of skin-specific T cells ([4]; 100 μM): significantly decreased
CD69+ T cells and CD103+ T cells [5]: decreased statistically significantly
proportion of CD3+ and CD4+ T cells [5]: decreased in a dose-dependent manner
eosinophil count [6]: decreased depending on the ipatasertib concentration
epidermal thickness [6]: decreased as the concentration of ipatasertib increased
fraction of T cells expressing CD69 among CD3+ CD4+ T cells [7]: tended to decrease
fraction of CD3+ CD4+ CD103+ T cells ([7]; 100 μM): statistically significantly lowest
proportion of CD3+ T cells ([7]; 100 μM): lowest proportion of CD3+ T cells
therapeutic effect against atopic dermatitis [8]: clinically significant therapeutic effect
total DF-specific IgE level [9]: significantly decreased
total DF-specific IgE level ([9]; compared to 0.1% dexamethasone group): significantly decreased even compared to that in the 0.1% dexamethasone group
proportions of CD3+, CD4+, CD69+, and CD103+ skin-specific T cells ([10]; 50 μM, skin): significantly decreased
proportions of CD3+, CD4+, CD69+, and CD103+ skin-specific T cells ([10]; 100 μM, skin): significantly decreased
CD69+ T cells and CD103+ T cells ([10]; skin tissues of the ipatasertib groups): statistically significantly decreased
proportions of skin-specific T cells ([10]; skin, compared to 0.1% dexamethasone-treated group): significantly decreased even compared to that in the 0.1% dexamethasone-treated group
decrease in the total serum IgE level [11, 12]: significantly greater
serum total IgE level ([11]; ELISA, ipatasertib groups up to 100 μM): decreased in a dose-dependent manner
